# Test: recombinant UMI read abundance after kanamycin selection (control-corrected) (log10(CPM+1)); higher = more efficient recombination; extreme values may be limits of the assay; sequences stand for … in AGTGCAGAGAAAATCGGCCAGTTTTCTCTGCCTGCAGTCCGCATGCCGTGGGACCCCTTGGGTTCTAACCTGTTGCCTAGATTTATGCAGCGGACTGCCTTTCTCCCAAAGTGATAAACCGG…AGGTTGGTTTCACT; site = the 11-nt donor
# How it was run: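 Counts of recombinant UMIs were reported as log10(CPM+1). Before that, they were converted to CPM, averaged over replicates and scaled using control-derived factors. They came from PCR across the donor–target junction after Escherichia coli carrying the pair library and target plasmid was plated on IPTG (0.07 mM) plus kanamycin, or unselected, in two replicates each.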
# 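Also: IS621 bridge recombinase in Escherichia coli cells against a fixed T5 target plasmid.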
row,Sequence,recombinant UMI read abundance (log10)
1,GGGGAGGCATGGACCGGTTTTCCCGGTAATCCGTATTTGTG (site GTGGAGGCTCA),0.134
2,GGGGAGTCATGGACCGGTTTTCCCGGTAATCCGTATTTGCC (site AGGGAGTCTGG),1.14
3,GGGGAGTCATGGACCGGTTTTCCCGGTAATCCGTATTTGCC (site CGGGAGTCTGG),0
4,GGGGAGTCATGGACCGGTTTTCCCGGTAATCCGTATTTGCC (site GGGGAGTCTGG),1.78
5,GGGGAGTCATGGACCGGTTTTCCCGGTAATCCGTATTTGCC (site TGGGAGTCTGG),1.02
6,GGGGCACCATGGACCGGTTTTCCCGGTAATCCGTATTTGCG (site GGGGCACCTAG),0.0129
7,GGGGCACCATGGACCGGTTTTCCCGGTAATCCGTATTTGCG (site GGGGCACCTCG),0.0566
8,GGGGCACCATGGACCGGTTTTCCCGGTAATCCGTATTTGCG (site GGGGCACCTGG),0
9,GGGGCACCATGGACCGGTTTTCCCGGTAATCCGTATTTGCG (site GGGGCACCTTG),0
10,GGGGCACCATGGACCGGTTTTCCCGGTAATCCGTATTTGCT (site GGGGCACCTAG),0
11,GGGGCACCATGGACCGGTTTTCCCGGTAATCCGTATTTGCT (site GGGGCACCTCG),0.0126
12,GGGGCACCATGGACCGGTTTTCCCGGTAATCCGTATTTGCT (site GGGGCACCTGG),0
13,GGGGCACCATGGACCGGTTTTCCCGGTAATCCGTATTTGCT (site GGGGCACCTTG),0
14,GGGGCACCATGGACCGGTTTTCCCGGTAATCCGTATTTGGA (site GGGGCACCTTA),0
15,GGGGCACCATGGACCGGTTTTCCCGGTAATCCGTATTTGGA (site GGGGCACCTTC),0.0209
16,GGGGCACCATGGACCGGTTTTCCCGGTAATCCGTATTTGGA (site GGGGCACCTTG),0
17,GGGGCACCATGGACCGGTTTTCCCGGTAATCCGTATTTGGA (site GGGGCACCTTT),0.0158
18,GGGGCATCATGGACCGGTTTTCCCGGTAATCCGTATTTGCA (site GGGGCAACTTG),0
19,GGGGCATCATGGACCGGTTTTCCCGGTAATCCGTATTTGCA (site GGGGCACCTTG),0
20,GGGGCATCATGGACCGGTTTTCCCGGTAATCCGTATTTGCA (site GGGGCAGCTTG),0
21,GGGGCATCATGGACCGGTTTTCCCGGTAATCCGTATTTGCA (site GGGGCATCTTG),2.13
22,GGGGTTCCATGGACCGGTTTTCCCGGTAATCCGTATTTGAA (site GGGGTTCCTTT),0
23,GGGTACTCATGGACCGGTTTTCCCGGTAATCCGTATTTGCT (site GGGTACTCTAG),3.34
24,GGGTTCCCATGGACCGGTTTTCCCGGTAATCCGTATTTGTG (site AGGTTCCCTCA),0.00854
25,GGGTTCCCATGGACCGGTTTTCCCGGTAATCCGTATTTGTG (site CGGTTCCCTCA),0.0144

row,Sequence,recombinant UMI read abundance (log10)
1,GGGTTCCCATGGACCGGTTTTCCCGGTAATCCGTATTTGTG (site GGGTTCCCTCA),0.00899
2,GGGTTCCCATGGACCGGTTTTCCCGGTAATCCGTATTTGTG (site TGGTTCCCTCA),0.0194
3,GGTAAACCATGGACCGGTTTTCCCGGTAATCCGTATTTGAT (site GGTAAACCTAT),0
4,GGTAAGCCATGGACCGGTTTTCCCGGTAATCCGTATTTGGG (site GGTAAGCCTCC),0.023
5,GGTACAACATGGACCGGTTTTCCCGGTAATCCGTATTTGTA (site GGTACAACTTA),0.0152
6,GGTACAACATGGACCGGTTTTCCCGGTAATCCGTATTTGTA (site GGTCCAACTTA),0.00335
7,GGTACAACATGGACCGGTTTTCCCGGTAATCCGTATTTGTA (site GGTGCAACTTA),0.0119
8,GGTACAACATGGACCGGTTTTCCCGGTAATCCGTATTTGTA (site GGTTCAACTTA),0.0127
9,GGTACGCCATGGACCGGTTTTCCCGGTAATCCGTATTTGTT (site GGTACGACTAA),0.0526
10,GGTACGCCATGGACCGGTTTTCCCGGTAATCCGTATTTGTT (site GGTACGCCTAA),0.0149
11,GGTACGCCATGGACCGGTTTTCCCGGTAATCCGTATTTGTT (site GGTACGGCTAA),0.0123
12,GGTACGCCATGGACCGGTTTTCCCGGTAATCCGTATTTGTT (site GGTACGTCTAA),0.426
13,GGTACGTCATGGACCGGTTTTCCCGGTAATCCGTATTTGAT (site GGTACGTCTAA),0.0132
14,GGTACGTCATGGACCGGTTTTCCCGGTAATCCGTATTTGAT (site GGTACGTCTAC),0.00659
15,GGTACGTCATGGACCGGTTTTCCCGGTAATCCGTATTTGAT (site GGTACGTCTAG),0
16,GGTACGTCATGGACCGGTTTTCCCGGTAATCCGTATTTGAT (site GGTACGTCTAT),0.46
17,GGTACGTCATGGACCGGTTTTCCCGGTAATCCGTATTTGTA (site GGTACGTCTAA),0.0713
18,GGTACGTCATGGACCGGTTTTCCCGGTAATCCGTATTTGTA (site GGTACGTCTCA),0.00737
19,GGTACGTCATGGACCGGTTTTCCCGGTAATCCGTATTTGTA (site GGTACGTCTGA),0
20,GGTACGTCATGGACCGGTTTTCCCGGTAATCCGTATTTGTA (site GGTACGTCTTA),0.651
21,GGTACTGCATGGACCGGTTTTCCCGGTAATCCGTATTTGCC (site GATACTGCTGG),0
22,GGTACTGCATGGACCGGTTTTCCCGGTAATCCGTATTTGCC (site GCTACTGCTGG),0.662
23,GGTACTGCATGGACCGGTTTTCCCGGTAATCCGTATTTGCC (site GGTACTGCTGG),1.58
24,GGTACTGCATGGACCGGTTTTCCCGGTAATCCGTATTTGCC (site GTTACTGCTGG),0
25,GGTATGTCATGGACCGGTTTTCCCGGTAATCCGTATTTGTT (site GGTAAGTCTAA),0.00575

row,Sequence,recombinant UMI read abundance (log10)
1,GGTATGTCATGGACCGGTTTTCCCGGTAATCCGTATTTGTT (site GGTACGTCTAA),0.0321
2,GGTATGTCATGGACCGGTTTTCCCGGTAATCCGTATTTGTT (site GGTAGGTCTAA),0.00327
3,GGTATGTCATGGACCGGTTTTCCCGGTAATCCGTATTTGTT (site GGTATGTCTAA),0.586
4,GGTATTACATGGACCGGTTTTCCCGGTAATCCGTATTTGAG (site GGTATTACTCT),0
5,GGTCACACATGGACCGGTTTTCCCGGTAATCCGTATTTGTC (site GGTCACACTGA),2.3
6,GGTCACCCATGGACCGGTTTTCCCGGTAATCCGTATTTGTT (site GGACACCCTAA),0
7,GGTCACCCATGGACCGGTTTTCCCGGTAATCCGTATTTGTT (site GGCCACCCTAA),0.0117
8,GGTCACCCATGGACCGGTTTTCCCGGTAATCCGTATTTGTT (site GGGCACCCTAA),0.0126
9,GGTCACCCATGGACCGGTTTTCCCGGTAATCCGTATTTGTT (site GGTCACCCTAA),0.00231
10,GGTCAGCCATGGACCGGTTTTCCCGGTAATCCGTATTTGGG (site GGTCAGCCTCC),0.00726
11,GGTCCAACATGGACCGGTTTTCCCGGTAATCCGTATTTGCA (site GGTCCAACTTA),0.0117
12,GGTCCAACATGGACCGGTTTTCCCGGTAATCCGTATTTGCA (site GGTCCAACTTC),0.107
13,GGTCCAACATGGACCGGTTTTCCCGGTAATCCGTATTTGCA (site GGTCCAACTTG),0
14,GGTCCAACATGGACCGGTTTTCCCGGTAATCCGTATTTGCA (site GGTCCAACTTT),0.0134
15,GGTCCAACATGGACCGGTTTTCCCGGTAATCCGTATTTGTA (site AGTCCAACTTA),0.0127
16,GGTCCAACATGGACCGGTTTTCCCGGTAATCCGTATTTGTA (site CGTCCAACTTA),0
17,GGTCCAACATGGACCGGTTTTCCCGGTAATCCGTATTTGTA (site GATCCAACTTA),0.0069
18,GGTCCAACATGGACCGGTTTTCCCGGTAATCCGTATTTGTA (site GCTCCAACTTA),0.00409
19,GGTCCAACATGGACCGGTTTTCCCGGTAATCCGTATTTGTA (site GGACCAACTTA),0.00547
20,GGTCCAACATGGACCGGTTTTCCCGGTAATCCGTATTTGTA (site GGCCCAACTTA),0.0162
21,GGTCCAACATGGACCGGTTTTCCCGGTAATCCGTATTTGTA (site GGGCCAACTTA),0.00345
22,GGTCCAACATGGACCGGTTTTCCCGGTAATCCGTATTTGTA (site GGTACAACTTA),0.00331
23,GGTCCAACATGGACCGGTTTTCCCGGTAATCCGTATTTGTA (site GGTCAAACTTA),0.0208
24,GGTCCAACATGGACCGGTTTTCCCGGTAATCCGTATTTGTA (site GGTCCAACTAA),0.0196
25,GGTCCAACATGGACCGGTTTTCCCGGTAATCCGTATTTGTA (site GGTCCAACTCA),0.0175

# From the supplement of paper PMC11208160
